Measured values taken from ChEMBL document CHEMBL2086262, “Ligand-based designing, in silico screening, and biological evaluation of new potent fructose-1,6-bisphosphatase (FBPase) inhibitors” (Eur J Med Chem, 2012).
Calls of active or inactive are those of the source. The calls are words filed in the database; no cut-off is given here.

Key:
[1] = Inhibition of human recombinant FBPase using fructose-1,6-biphosphate as substrate incubated for 3 mins prior to substrate addition by spectrophotometric analysis
Homo sapiens = species on record: Homo sapiens; assay: Inhibition of human recombinant FBPase using fructose-1,6-biphosphate as substrate at 10 uM incubated for 3 mins prior to substrate addition by spectrophotometric analysis

SMILES	IC50 [1] [nM]	inhibition (Homo sapiens)
COC(=O)CC(=O)CC(=O)c1cccc([N+](=O)[O-])c1	2230	74%
C[N+](C)(CCCCOc1c(Br)cc(Br)cc1Br)Cc1ccc([N+](=O)[O-])o1	700	100%
CCN1C(=O)/C(=C/c2ccc(O)c(S(=O)(=O)O)c2)SC1=S	6020	69%
CC1(C)N=C(N)N=C(N)N1c1cccc(OCCOc2ccccc2[N+](=O)[O-])c1	250	100%
O=S(=O)(O)c1ccccc1/C=N/N=C/c1ccccc1S(=O)(=O)O	150	100%
CC1(C)C2CCC1(C)C(OCCC/N=C(\N)CSS(=O)(=O)O)C2 (centres undefined)	3800	81%
O=C(OCc1ccc([N+](=O)[O-])cc1)c1ccccc1[N+](=O)[O-]	1650	100%
COc1cc(/C=C/Cc2c(O)ccc3c2OCO3)cc(OC)c1OC		inactive
C#Cc1cccc(Nc2ncnc3cc(OCC)c(OCC)cc23)c1	2400	
CCOc1cc2ncnc(Nc3cccc(-c4csc(-c5ccccc5)n4)c3)c2cc1OCC	> 10000	
CCOc1cc2ncnc(Nc3cc(-c4csc(C)n4)cc(C(F)(F)F)c3)c2cc1OCC	> 10000	
CCOc1cc2ncnc(Nc3cccc(-c4cccnc4)c3)c2cc1OCC	1400	
CCOc1cc2ncnc(Nc3ccc(F)c(-c4csc(C)n4)c3)c2cc1OCC	610	
O=C(O)CCc1c(C(=O)NO)[nH]c2cc(Cl)cc(Cl)c12	> 10000	
CCOc1cc2ncnc(Nc3cccc(-c4nc(C)cs4)c3)c2cc1OCC	650	

Second part, the compound after the results:

IC50 [1] [nM]	inhibition (Homo sapiens)	SMILES
3460	77%	C=CCN1C(=O)/C(=C/c2ccccc2OCC(=O)O)SC1=S
900	87%	O=C(O)c1ccccc1C(=O)CCC(=O)c1ccccc1C(=O)O
	inactive	COc1cc(C2=N/C(=C\c3cccc(O)c3O)C(=O)O2)cc(OC)c1OC
	inactive	O=C1NC(=O)C2N=C(CNc3ccc(C(=O)O)cc3)NC2N1 (centres undefined)
2440	60%	Cc1cc(Cl)ccc1OCCCC(=O)NC(CC(C)C)C(=O)O (centres undefined)
320	76%	COc1ccc(C(=O)/C=C2/Nc3ccc([N+](=O)[O-])cc3NC2=O)cc1
	37%	O=S(=O)(SCCCCSS(=O)(=O)c1ccc(Cl)cc1)c1ccc(Cl)cc1
> 10000		CCOc1cc2ncnc(Nc3cc(-c4csc(C)n4)ccc3Br)c2cc1OCC
330	87%	CCOC(=O)c1csc(-c2csc(CCNC(=O)c3ccccc3)n2)n1
3500		CCOc1cc2ncnc(Nc3cccc(-c4csc(N)n4)c3)c2cc1OCC
6000		CCNCc1nc(Nc2cccc(-c3csc(C)n3)c2)c2cc(OCC)c(OCC)cc2n1
5880	67%	O=C(CCCOc1ccc(Cl)cc1Cl)NC(CC1NCc2ccccc21)C(=O)O (centres undefined)
1600		CCOc1cc2ncnc(Nc3cccc(Cl)c3)c2cc1OCC
6100		CCOc1nc(-c2cccc(Nc3ncnc4cc(OCC)c(OCC)cc34)c2)cs1
> 10000		CCOc1cc2nc(Cc3ccccc3)nc(Nc3cccc(-c4csc(C)n4)c3)c2cc1OCC
> 10000		Nc1cc2c(Nc3cccc(Br)c3)ncnc2cc1Cl
4500		COc1cc2nc(C)nc(Nc3cccc(Br)c3)c2cc1OC
1500		CCOc1cc2nc(CN)nc(Nc3cccc(-c4csc(C)n4)c3)c2cc1OCC
> 10000		CCCOc1cc2c(Nc3cccc(-c4csc(C)n4)c3)ncnc2cc1OC
3600		CCOc1cc2ncnc(Nc3cccc(Br)c3)c2cc1[N+](=O)[O-]
> 10000		CCOc1cc2ncnc(Nc3ccccc3)c2cc1OCC
